Where “and” joins values, the source holds several entries; their conditions need not be identical. Equal values may be shown once.
Biological target: T1, human TAS2R14 (Homo sapiens, UniProt Q9NYV8)
T1 construct: expressed in transfected cells; host or cells: HEK293T-Gα16gust44
T1 sequence (Q9NYV8 1-317): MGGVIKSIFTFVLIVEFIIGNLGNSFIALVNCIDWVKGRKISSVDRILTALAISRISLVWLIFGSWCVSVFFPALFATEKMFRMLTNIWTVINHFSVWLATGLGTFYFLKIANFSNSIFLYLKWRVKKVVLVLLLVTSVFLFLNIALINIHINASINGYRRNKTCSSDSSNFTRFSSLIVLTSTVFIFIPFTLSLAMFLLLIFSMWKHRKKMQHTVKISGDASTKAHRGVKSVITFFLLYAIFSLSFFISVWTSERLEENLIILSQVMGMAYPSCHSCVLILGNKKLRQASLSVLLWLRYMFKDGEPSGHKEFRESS
Assay: Calcium imaging assay (FLIPR), HEK293T-Gα16gust44 cells transfected with human TAS2R14
Format: cell-based
Conditions: for RLU: TAS2R14 trace
Outline: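 Read-out is Fluo-4 fluorescence change (ΔF/F) after automated application of bile acids (DMSO stocks) to transiently transfected cells. Values are corrected for empty-vector cells and normalized to buffer. Dose-response from three independent experiments in duplicate; threshold concentration set at p < 0.01 versus mock.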

C[C@H](CCC(=O)O)[C@H]1CC[C@H]2[C@@H]3[C@H](O)C[C@@H]4C[C@H](O)CC[C@]4(C)[C@H]3CC[C@]12C [Chenodeoxycholic Acid, chenodeoxycholic acid]
Efficacy = maximal amplitude (ΔF/F) (TAS2R14, bile acids, mean): 0.05441 | Efficacy (maximal amplitude ΔF/F), individual data points (TAS2R14, bile acids, single replicates, listed as CDCA): 0.0148 and 0.07816 and 0.07028 | Δ F/F (TAS2R14, conc. 0,01 mM): 0.006116 | Δ F/F (TAS2R14, conc. 0,03 mM): 0.05441 | Δ F/F (TAS2R14, conc. 0,00003 mM): -0.01882 | Δ F/F (TAS2R14, conc. 0,0001 mM): -0.01861 | Δ F/F (TAS2R14, conc. 0,0003 mM): -0.02118 | Δ F/F (TAS2R14, conc. 0,001 mM): -0.02299 | Δ F/F (TAS2R14, conc. 0,003 mM): -0.02084 | RLU (Time (s) 0): 0 RLU | RLU (Time (s) 2 (Taurocholic Acid 2.016)): -49.1645 RLU | RLU (Time (s) 4 (Taurocholic Acid 4.016)): -25.5098 RLU | RLU (Time (s) 6 (Taurocholic Acid 6.016)): -14.6279 RLU | RLU (Time (s) 8 (Taurocholic Acid 8.016)): -24.697 RLU | RLU (Time (s) 12 (Taurocholic Acid 12.016)): -44.0879 RLU | RLU (Time (s) 14 (Taurocholic Acid 14.016)): -37.1122 RLU | RLU (Time (s) 16 (Taurocholic Acid 16.016)): -43.9695 RLU | RLU (Time (s) 18 (Taurocholic Acid 18.016)): -32.8497 RLU | RLU (Time (s) 18.797 (Chenodeoxycholic Acid 18.765)): 7.956 RLU | RLU (Time (s) 20.797 (Chenodeoxycholic Acid 20.781)): 109.495 RLU | RLU (Time (s) 22.797 (Chenodeoxycholic Acid 22.781)): 144.429 RLU | RLU (Time (s) 24.797 (Chenodeoxycholic Acid 24.781)): 188.481 RLU | RLU (Time (s) 26.797 (Chenodeoxycholic Acid 26.781)): 194.457 RLU | RLU (Time (s) 28.797 (Chenodeoxycholic Acid 28.781)): 226.874 RLU | RLU (Time (s) 30.797 (Chenodeoxycholic Acid 30.781)): 234.892 RLU | RLU (Time (s) 32.797 (Chenodeoxycholic Acid 32.781)): 237.826 RLU | RLU (Time (s) 34.797 (Chenodeoxycholic Acid 34.781)): 263.919 RLU | RLU (Time (s) 36.797 (Chenodeoxycholic Acid 36.781)): 289.916 RLU | RLU (Time (s) 38.797 (Chenodeoxycholic Acid 38.781)): 280.38 RLU | RLU (Time (s) 40.797 (Chenodeoxycholic Acid 40.781)): 364.7 RLU | RLU (Time (s) 42.797 (Chenodeoxycholic Acid 42.781)): 389.665 RLU | RLU (Time (s) 44.797 (Chenodeoxycholic Acid 44.781)): 409.588 RLU | RLU (Time (s) 46.797 (Chenodeoxycholic Acid 46.781)): 412.285 RLU | RLU (Time (s) 48.797 (Chenodeoxycholic Acid 48.781)): 462.382 RLU | RLU (Time (s) 50.797 (Chenodeoxycholic Acid 50.781)): 489.05 RLU | RLU (Time (s) 52.797 (Chenodeoxycholic Acid 52.781)): 480.824 RLU | RLU (Time (s) 54.797 (Chenodeoxycholic Acid 54.781)): 484 RLU | RLU (Time (s) 56.797 (Chenodeoxycholic Acid 56.781)): 514.521 RLU | RLU (Time (s) 58.797 (Chenodeoxycholic Acid 58.781)): 561.552 RLU | RLU (Time (s) 60.797 (Chenodeoxycholic Acid 60.781)): 547.999 RLU | RLU (Time (s) 62.797 (Chenodeoxycholic Acid 62.781)): 553.072 RLU | RLU (Time (s) 64.797 (Chenodeoxycholic Acid 64.781)): 596.368 RLU | RLU (Time (s) 66.797 (Chenodeoxycholic Acid 66.781)): 582.133 RLU | RLU (Time (s) 68.797 (Chenodeoxycholic Acid 68.781)): 591.364 RLU | RLU (Time (s) 70.797 (Chenodeoxycholic Acid 70.781)): 612.747 RLU | RLU (Time (s) 72.797 (Chenodeoxycholic Acid 72.781)): 626.948 RLU | RLU (Time (s) 74.797 (Chenodeoxycholic Acid 74.781)): 600.862 RLU | RLU (Time (s) 76.797 (Chenodeoxycholic Acid 76.781)): 644.716 RLU | RLU (Time (s) 78.797 (Chenodeoxycholic Acid 78.781)): 648.451 RLU | RLU (Time (s) 80.797 (Chenodeoxycholic Acid 80.781)): 604.524 RLU | RLU (Time (s) 82.797 (Chenodeoxycholic Acid 82.781)): 653.18 RLU | RLU (Time (s) 84.797 (Chenodeoxycholic Acid 84.781)): 678.438 RLU | RLU (Time (s) 86.797 (Chenodeoxycholic Acid 86.781)): 660.126 RLU | RLU (Time (s) 88.797 (Chenodeoxycholic Acid 88.781)): 638.796 RLU | RLU (Time (s) 90.797 (Chenodeoxycholic Acid 90.781)): 637.499 RLU | RLU (Time (s) 92.797 (Chenodeoxycholic Acid 92.781)): 628.913 RLU | RLU (Time (s) 94.797 (Chenodeoxycholic Acid 94.781)): 638.53 RLU | RLU (Time (s) 96.797 (Chenodeoxycholic Acid 96.781)): 632.564 RLU | RLU (Time (s) 98.797 (Chenodeoxycholic Acid 98.781)): 628.21 RLU | RLU (Time (s) 100.797 (Chenodeoxycholic Acid 100.781)): 613.502 RLU | RLU (Time (s) 102.797 (Chenodeoxycholic Acid 102.781)): 604.41 RLU | RLU (Time (s) 104.797 (Chenodeoxycholic Acid 104.781)): 599.892 RLU | RLU (Time (s) 106.797 (Chenodeoxycholic Acid 106.781)): 563.223 RLU | RLU (Time (s) 108.797 (Chenodeoxycholic Acid 108.781)): 594.081 RLU | RLU (Time (s) 110.797 (Chenodeoxycholic Acid 110.781)): 586.278 RLU | RLU (Time (s) 112.797 (Chenodeoxycholic Acid 112.781)): 550.791 RLU | RLU (Time (s) 114.797 (Chenodeoxycholic Acid 114.781)): 544.911 RLU | RLU (Time (s) 116.797 (Chenodeoxycholic Acid 116.781)): 535.277 RLU | RLU (Time (s) 118.797 (Chenodeoxycholic Acid 118.781)): 521.394 RLU | RLU (Time (s) 120.797 (Chenodeoxycholic Acid 120.781)): 516.9 RLU | RLU (Time (s) 122.797 (Chenodeoxycholic Acid 122.781)): 506.351 RLU | RLU (Time (s) 124.797 (Chenodeoxycholic Acid 124.781)): 491.947 RLU | RLU (Time (s) 126.797 (Chenodeoxycholic Acid 126.781)): 464.952 RLU | RLU (Time (s) 128.797 (Chenodeoxycholic Acid 128.781)): 465.396 RLU | RLU (Time (s) 130.797 (Chenodeoxycholic Acid 130.781)): 467.418 RLU | RLU (Time (s) 132.797 (Chenodeoxycholic Acid 132.781)): 469.949 RLU | RLU (Time (s) 134.797 (Chenodeoxycholic Acid 134.781)): 415.628 RLU | RLU (Time (s) 136.797 (Chenodeoxycholic Acid 136.781)): 432.183 RLU | RLU (Time (s) 137.562 (Taurocholic Acid 137.563, Chenodeoxycholic Acid 137.546)): 452.404 RLU | RLU (Time (s) 143.578 (Taurocholic Acid 143.563, Chenodeoxycholic Acid 143.546)): 380.071 RLU | RLU (Time (s) 149.578 (Taurocholic Acid 149.563, Chenodeoxycholic Acid 149.546)): 382.743 RLU | RLU (Time (s) 155.578 (Taurocholic Acid 155.563, Chenodeoxycholic Acid 155.546)): 336.968 RLU | RLU (Time (s) 161.578 (Taurocholic Acid 161.563, Chenodeoxycholic Acid 161.546)): 359.379 RLU | RLU (Time (s) 167.578 (Taurocholic Acid 167.563, Chenodeoxycholic Acid 167.546)): 343.975 RLU | RLU (Time (s) 173.578 (Taurocholic Acid 173.563, Chenodeoxycholic Acid 173.546)): 278.705 RLU | RLU (Time (s) 179.578 (Taurocholic Acid 179.563, Chenodeoxycholic Acid 179.546)): 300.666 RLU | RLU (Time (s) 191.578 (Taurocholic Acid 191.563, Chenodeoxycholic Acid 191.546)): 185.369 RLU | RLU (Time (s) 197.578 (Taurocholic Acid 197.563, Chenodeoxycholic Acid 197.546)): 161.87 RLU | RLU (Time (s) 209.578 (Taurocholic Acid 209.563, Chenodeoxycholic Acid 209.546)): 179.275 RLU | RLU (Time (s) 221.578 (Taurocholic Acid 221.563, Chenodeoxycholic Acid 221.546)): 182.465 RLU | RLU (Time (s) 233.578 (Taurocholic Acid 233.563, Chenodeoxycholic Acid 233.546)): 198.132 RLU | RLU (Time (s) 239.578 (Taurocholic Acid 239.563, Chenodeoxycholic Acid 239.546)): 183.585 RLU | RLU (Time (s) 245.578 (Taurocholic Acid 245.563, Chenodeoxycholic Acid 245.546)): 212.748 RLU | RLU (Time (s) 293.578 (Taurocholic Acid 293.563, Chenodeoxycholic Acid 293.546)): 209.963 RLU | RLU (Time (s) 299.578 (Taurocholic Acid 299.563, Chenodeoxycholic Acid 299.546)): 216.371 RLU | RLU (Time (s) 305.578 (Taurocholic Acid 305.563, Chenodeoxycholic Acid 305.546)): 208.994 RLU | RLU (Time (s) 311.578 (Taurocholic Acid 311.563, Chenodeoxycholic Acid 311.546)): 184.812 RLU | RLU (Time (s) 317.578 (Taurocholic Acid 317.563, Chenodeoxycholic Acid 317.546)): 189.014 RLU | RLU (Time (s) 323.578 (Taurocholic Acid 323.563, Chenodeoxycholic Acid 323.546)): 182.748 RLU | RLU (Time (s) 329.578 (Taurocholic Acid 329.563, Chenodeoxycholic Acid 329.546)): 195.394 RLU | RLU (Time (s) 335.578 (Taurocholic Acid 335.563, Chenodeoxycholic Acid 335.546)): 190.135 RLU | RLU (Time (s) 341.578 (Taurocholic Acid 341.563, Chenodeoxycholic Acid 341.546)): 187.029 RLU | RLU (Time (s) 347.578 (Taurocholic Acid 347.563, Chenodeoxycholic Acid 347.546)): 164.841 RLU | RLU (Time (s) 353.578 (Taurocholic Acid 353.563, Chenodeoxycholic Acid 353.546)): 198.762 RLU | RLU (Time (s) 359.578 (Taurocholic Acid 359.563, Chenodeoxycholic Acid 359.546)): 181.785 RLU | Activation threshold concentration TAS2R14 (lowest concentration with significantly increased fluorescence vs empty vector (p < 0.01)): 30 µM | Receptor response TAS2R14 (screening): activated

Source: paper PMC10247784, “Physiological activation of human and mouse bitter taste receptors by bile acids” (Communications Biology, 2023)
